According to US5594022A, “Tachykinin antagonists” (Warner-Lambert Company, priority 1994, dated 1997):
Structures can show the parent of a compound that is named as a salt. Where two headings read alike, the source gives them in different places.

Columns and labels:
[1] = target: T1, NK1 receptor (Cavia porcellus, UniProt P30547); experiment: In vitro NK1 receptor binding ([125I] Bolton Hunter Substance-P, guinea pig cerebral cortex membranes); conditions: [125I-BH]Substance-P 0.1 nM
T1 construct: guinea pig cerebral cortex membranes; from tissue; host or cells: guinea pig cerebral cortex membranes
Procedure: The compounds of the invention were also evaluated in three tachykinin binding assays.

[2] = target: T2, NK1 receptor (Guinea Pig Trachea) (Cavia porcellus, UniProt P30547); experiment: NK1 antagonist activity, guinea pig trachea; conditions: read-out: NK1 Antagonist Activity pkB/pA2, Guinea Pig Trachea (converted)
T2 construct: Trachea; from tissue; host or cells: guinea pig trachea

[3] = target: T3, NK1 receptor (Guinea Pig Ileum) (Cavia porcellus, UniProt P30547); experiment: NK1 antagonist activity, guinea pig ileum; conditions: read-out: NK1 Antagonist Activity pkB/pA2, Guinea Pig Ileum (converted)
T3 construct: Ileum; from tissue; host or cells: guinea pig ileum

[4] = target: T1, NK1 receptor; experiment: Guinea pig plasma extravasation (antagonism of SPOMe-induced plasma protein extravasation in the bladder); type: in vivo; conditions: read-out: ID50, Guinea Pig Plasma Extravasation
[5] = read-out: Binding IC50, In Vitro NK1 Receptor Binding
[6] = Binding IC50, In Vitro NK1 Receptor Binding
[7] = guinea pig bladder, IV, SPOMe-induced

T1 sequence (P30547 whole entry): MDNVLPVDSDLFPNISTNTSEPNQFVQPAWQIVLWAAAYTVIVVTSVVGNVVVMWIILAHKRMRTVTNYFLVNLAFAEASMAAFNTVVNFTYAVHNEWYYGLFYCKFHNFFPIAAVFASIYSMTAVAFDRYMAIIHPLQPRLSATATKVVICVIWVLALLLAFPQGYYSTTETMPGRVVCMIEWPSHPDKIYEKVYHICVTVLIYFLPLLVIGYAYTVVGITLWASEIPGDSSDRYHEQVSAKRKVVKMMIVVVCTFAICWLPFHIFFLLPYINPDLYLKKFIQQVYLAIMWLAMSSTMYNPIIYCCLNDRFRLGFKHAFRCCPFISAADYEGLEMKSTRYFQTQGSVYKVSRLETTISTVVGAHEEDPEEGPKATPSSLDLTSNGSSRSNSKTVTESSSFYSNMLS
T3 sequence (P30547 whole entry): as above
T2 sequence (P30547 whole entry): as above

| SMILES | IC50 [1, 5] [nM] | also measured |
| --- | --- | --- |
| CC(NC(=O)[C@@](C)(Cc1c[nH]c2ccccc12)NC(=O)OCc1ccccc1)c1cc(C(F)(F)F)cc(C(F)(F)F)c1 (mixture of isomers) [Example 39, Phenylmethyl (R,RS)-[2-[[1-[3,5-bis(trifluoromethyl) -phenyl]ethyl]amino]-1-(1H-indol-3-ylmethyl)-1-methyl-2-oxoethyl]carbamate] | 10000 |  |
| C[C@H](NC(=O)[C@@](C)(Cc1c[nH]c2ccccc12)NC(=O)OCc1ccco1)c1ccccc1 (relative stereo) [Example 49, 2-Furanylmethyl [R,(R*,S*)]-[1-(1H-indol-3-ylmethyl) -1-methyl-2-oxo-2-[(1-phenylethyl)amino]ethyl]carbamate] | 120 |  |
| Cc1ccc(C(C)NC(=O)[C@@](C)(Cc2c[nH]c3ccccc23)NC(=O)OCc2ccccc2)cc1 (single isomer, unassigned) [Example 36, Phenylmethyl [1-(1H-indol-3-ylmethyl)-1-methyl-2-[[1-(4-methylphenyl)ethyl]amino]-2-oxoethyl]carbamate] | 70 |  |
| Cc1ccc(C(C)NC(=O)[C@@](C)(Cc2c[nH]c3ccccc23)NC(=O)OCc2ccccc2)cc1 (single isomer, unassigned) [Example 37, Phenylmethyl [1-(1H-indol-3-ylmethyl)-1-methyl-2-[[1-(4-methylphenyl)ethyl]amino]-2-oxoethyl]carbamate] | 290 |  |
| CN(Cc1ccccc1)C(=O)C(Cc1c[nH]c2ccccc12)NC(=O)OCc1ccccc1 (stereo not shown) [Example 1] | 341 |  |
| CN(Cc1ccccc1)C(=O)[C@H](Cc1c[nH]c2ccccc12)NC(=O)OCc1ccccc1 [Example 3] | 218 |  |
| CC(NC(=O)C(Cc1c[nH]c2ccccc12)NC(=O)OCc1ccccc1)c1ccccc1 (stereo not shown) [Example 4] | 198 |  |
| C[C@H](NC(=O)[C@@H](Cc1c[nH]c2ccccc12)NC(=O)OCc1ccccc1)c1ccccc1 [Example 6] | 75 |  |
| C[C@H](NC(=O)[C@H](Cc1c[nH]c2ccccc12)NC(=O)OCc1ccccc1)c1ccccc1 [Example 7] | 306 |  |
| C[C@H](NC(=O)[C@](C)(Cc1c[nH]c2ccccc12)NC(=O)OCc1ccccc1)c1ccccc1 [Example 16] |  | IC50 [1, 6]: 702 nM |
| Cc1ccc(COC(=O)N[C@](C)(Cc2c[nH]c3ccccc23)C(=O)N[C@@H](C)c2ccccc2)cc1 [Example 22] |  | Kb [2]: 100 nM; Kb [3]: 15.8 nM; ED50 ([4]; guinea pig, iv): 0.64 mg/kg; IC50 [1, 6]: 17 nM |
| CN(C(=O)OCc1ccccc1)[C@@H](Cc1c[nH]c2ccccc12)C(=O)NCc1ccccc1 [Example 23] | 168 |  |
| C[C@H](NC(=O)[C@H](Cc1c[nH]c2ccccc12)N(C)C(=O)OCc1ccccc1)c1ccccc1 [Example 24] | 185 |  |
| C[C@@H](NC(=O)[C@H](Cc1c[nH]c2ccccc12)N(C)C(=O)OCc1ccccc1)c1ccccc1 [Example 27] | 306 |  |
| CN(C(=O)OCc1ccc(Cl)cc1)[C@@H](Cc1c[nH]c2ccccc12)C(=O)NCc1ccccc1 [Example 29] | 487 |  |
| O=C(N[C@@H](Cc1c[nH]c2ccccc12)C(=O)OCc1cc(C(F)(F)F)cc(C(F)(F)F)c1)OCc1ccccc1 [Example 35, Methyl N-[(phenylmethoxy)carbonyl]-, [3,5-bis(trifluoromethyl)phenyl]-L-tryptophan] | 233 |  |
| CC(NC(=O)C(C)(Cc1c[nH]c2ccccc12)NC(=O)OCc1ccccc1)C1CCCCC1 (stereo not drawn) [Example 38, Phenylmethyl [R-(R*,R*)]-(2-[(1-cyclohexyethyl)amino]-1-(1H-indol-3-ylmethyl)-1-methyl-2-oxoethyl]carbamate] | 100 |  |
| COc1ccc(C(C)NC(=O)[C@@](C)(Cc2c[nH]c3ccccc23)NC(=O)OCc2ccccc2)cc1 (stereo partly drawn) [Example 40, Phenylmethyl (R,RS)-[1-(1H, indole-3-ylmethyl)-2-[[1-(4-methoxyphenyl)ethyl]amino]-1-methyl-2-oxoethyl]carbamate] | 210 |  |

| SMILES | IC50 [1, 5] [nM] | also measured |
| --- | --- | --- |
| C[C@H](NC(=O)[C@@](C)(Cc1c[nH]c2ccccc12)NC(=O)OCc1ccncc1)c1ccccc1 [Example 41] | > 10000 |  |
| C[C@H](NC(=O)[C@@](C)(Cc1c[nH]c2ccccc12)NC(=O)OCc1ccsc1)c1ccccc1 [Example 42, 3-Thienylmethyl [R-(R*,S*)]-[(1H-indol-3-ylmethyl) -1-methyl-2-oxo-2-[(1-phenylethyl)amino]ethyl]carbamate] | 140 |  |
| C[C@H](NC(=O)[C@@](C)(Cc1c[nH]c2ccccc12)NC(=O)OCc1cccs1)c1ccccc1 [Example 43, 2-Thienylmethyl [R-(R*,S*)]-[1-(1H-indol-3-ylmethyl) -1-methyl-2-oxo-[(1-phenylethyl)amino]ethyl]carbamate] | 100 |  |
| C[C@H](NC(=O)[C@@](C)(Cc1c[nH]c2ccccc12)NC(=O)OC1CCc2ccccc21)c1ccccc1 (stereo partly drawn) [Example 44, 2,3-Dihydro-1H-inden-3-yl [R-(R*,S*)]-[1(1H-indol-3-ylmethyl)-1-methyl-2-oxo-2-[(phenylethyl)amino]ethyl]carbamate] | 110 |  |
| C[C@H](NC(=O)[C@@](C)(Cc1c[nH]c2ccccc12)NC(=O)OC1Cc2ccccc2C1)c1ccccc1 [Example 46, 2,3-Dihydro-1H-inden-2-yl [1-(1H-indol-3-ylmethyl) -1-methyl-2-oxo-2-[(1-phenylethyl)amino]ethyl]carbamate] | 110 |  |
| C[C@H](NC(=O)[C@@](C)(Cc1c[nH]c2ccccc12)NC(=O)OCc1ccccc1F)c1ccccc1 [Example 47, (2-Fluorophenyl) methyl [R-(R*,S*)]-[1-(1H-insol-3-ylmethyl)-1-methyl-2-oxo-[1-phenylethyl)amino]ethyl]carbamate] |  | Kb [2]: 50.1 nM; Kb [3]: 3.98 nM; ED50 ([4]; guinea pig, iv): 0.13 mg/kg; IC50 [1, 6]: 10 nM |
| C[C@H](NC(=O)[C@@](C)(Cc1c[nH]c2ccccc12)NC(=O)OCc1ccoc1)c1ccccc1 [Example 48, 3- Furanylmethyl [R-(R*,S*)]-[1-(1H-indol-3-ylmethyl) -1-methyl-2-oxo-2-[(1-phenylethyl)amino]ethyl]carbamate] | 230 |  |
| C[C@H](NC(=O)[C@@](C)(Cc1c[nH]c2ccccc12)NC(=O)OCc1cccc(F)c1)c1ccccc1 [Example 50, (3-Fluorophenyl) methyl [R-(R*,S*)]-[1-(1H-indol-3-ylmethyl)-1-methyl-2-oxo-2-[(1-phenylethyl)amino]ethyl]carbamate] | 120 |  |
| C[C@H](NC(=O)[C@@](C)(Cc1c[nH]c2ccccc12)NC(=O)OCc1ccc(F)cc1)c1ccccc1 [Example 51, (4-Fluorophenyl) methyl [R-(R*,S*)]-[1-(1H-indol-3-ylmethyl)-1-methyl-2-oxo-2-[(1-phenylethyl)amino]ethyl]carbamate] | 230 |  |
| C[C@H](NC(=O)[C@@](C)(Cc1c[nH]c2ccccc12)NC(=O)OCc1cccc(F)c1F)c1ccccc1 [Example 52, (2,3-Difluorophenyl) methyl [R-(R*,S*)]-[(1H-indol-3-methyl)-1-methyl-2-oxo-[(1-phenylethyl)amino]ethyl]carbamate] | 49 |  |
| C[C@H](NC(=O)[C@@](C)(Cc1c[nH]c2ccccc12)NC(=O)OCc1ccc(F)cc1F)c1ccccc1 [Example 53, (2,4-Difluorophenyl) methyl [R-(R*,S*)]-[1-(1H-indol-3-ylmethyl)-1-methyl-2-oxo-2-[(1-phenylethyl)amino]ethyl]carbamate] |  | Kb [2]: 7.94 nM; Kb [3]: 2.51 nM; ED50 ([4]; guinea pig, iv): 0.071 mg/kg; IC50 [1, 6]: 39 nM |
| C[C@H](NC(=O)C(Cc1n[nH]c2ccccc12)NC(=O)OCc1ccccc1)c1ccccc1 (stereo partly drawn) [Example 55, Phenylmethyl [R-(R*,S*)]and [S-(R*,R*)]-[1-(1H -indazol-3-ylmethyl-)-2-oxo-2-[(1-phenylethyl)amino]ethyl]carbamate] | > 1000 |  |
| C[C@H](NC(=O)C(Cc1c[nH]c2ccc(F)cc12)NC(=O)OCc1ccccc1)c1ccccc1 (stereo partly drawn) [Example 56, Phenylmethyl [R-(R*,S*)]and [S-(R*,R*)]-[1-[(5-fluoro-1H-indol-3-yl)methyl]-2-oxo-2-[(1-phenylethyl)amino]ethyl]carbamate] | 3200 |  |
| CC(NC(=O)C(Cc1cn(C)c2ccccc12)NC(=O)OCc1ccccc1)c1ccccc1 (stereo not shown) [Example 57, Phenylmethyl [1-(1-methyl-1H-indol-3-ylmethyl]-2-pxp-2-[(1-phenylethyl)amino]ethyl]carbamate] | 3400 |  |
| C[C@H](NC(=O)[C@@H](Cc1ccc2ccccc2c1)NC(=O)OCc1ccccc1)c1ccccc1 [Example 58] | 1700 |  |
| C[C@H](NC(=O)C(C)(Cc1csc2ccccc12)NC(=O)OCc1ccccc1)c1ccccc1 (stereo partly shown) [Example 60, Phenylmethyl [1-(benzo[b]thien-3-ylmethyl)-1-methyl-2-oxo-2-[(1-phenylethyl)amino]ethyl]carbamate] | > 1000 |  |
| C[C@H](NC(=O)[C@@](C)(Cc1c[nH]c2ccccc12)NC(=O)OCc1cc2ccccc2o1)c1ccncc1 [Example 66, Carbamic acid, [1-(1H-indol-3-ylmethyl)-1-methyl-2-oxo-2-[[1-(4-pyridinyl)ethyl]amino]ethyl]-, 2-benzofuranylmethyl ester, monohydrochloride, [R-(R*,S*)]] |  | ED50 [4, 7]: 2.8 mg/kg |
| CN(Cc1ccccc1)C(=O)[C@H](Cc1c[nH]c2ccccc12)NC(=O)OCc1cc2ccccc2o1 [Example 67, Carbamic acid, [1-(1H-indol-3-ylmethyl)-2-[methyl (phenylmethyl)amino]-2-oxoethyl]-, 2-benzofuranylmethyl ester, (S)--] |  | Kb [3]: 12.6 nM; ED50 [4, 7]: 0.91 mg/kg |
